# Source: US8648111B2, “N1-2-thiophene-2-ylethyl-N2-substituted biguanide derivate, preparation method thereof, and pharmaceutical composition containing the same as active ingredients” (Hanall Biopharma Co., Ltd., priority 2008, dated 2014)
# Read-outs that look alike come from different tables or passages of the source.
# Key:
# Format in all cases: cell-based
# C2C12 cells = assay: Measurement of glucose absorption ability (3H-deoxy-glucose uptake with insulin); conditions: for Glucose absorption (100 uM) Aver.: 100 uM compound with 1 μM insulin, 24 hours, differentiated C2C12, higher value = stronger, more than 200% counts as glucose absorption ability
# HepG2 cells [1] = assay: Measurement of gluconeogenesis inhibitory ability (14C-lactate, glucose formed in cells)
# HepG2 cells [2] = assay: Measurement of triglyceride (triglyceride content in cell lysates, Amplex red)
# HepG2 cells [3] = assay: Measurement of cholesterol synthesis inhibitory ability (cholesterol content in cell lysates, Amplex red)
# [4] = 100 uM compound, 24 hours, HepG2, lower value = stronger gluconeogenesis inhibition
# [5] = 100 uM compound, 24 hours, HepG2, lower value = stronger triglyceride synthesis inhibition
# [6] = 500 uM compound, 24 hours, HepG2, lower value = stronger triglyceride synthesis inhibition
# [7] = 100 uM compound, 24 hours, HepG2, lower value = stronger cholesterol synthesis inhibition
# [8] = 500 uM compound, 24 hours, HepG2, lower value = stronger cholesterol synthesis inhibition
# [9] = 100 μM compound vs 2 mM metformin, by comparison of used amounts
Molecule,Glucose absorption (100 uM) Aver. (C2C12 cells) [%],Gluconeogenesis inhibition (100 uM) Aver. (HepG2 cells [1]; [4]),Triglyceride (100 uM) Aver. (HepG2 cells [2]; [5]),Triglyceride (500 uM) Aver. (HepG2 cells [2]; [6]),Cholesterol (100 uM) Aver. (HepG2 cells [3]; [7]),Cholesterol (500 uM) Aver. (HepG2 cells [3]; [8]),further results
"C=CCN=C(NCCc1cccs1)NC(=N)N.Cl [Example 44, N1-2-(thiophen-2-ylethyl)-N2-allyl biguanide hydrochloride]",87.78,–,–,–,–,–,Gluconeogenesis inhibition (100 uM) Aver. (HepG2 cells [1]): 77.80; Triglyceride (100 uM) Aver. (HepG2 cells [2]): 96.99; Triglyceride (500 uM) Aver. (HepG2 cells [2]): 74.60; Cholesterol (100 uM) Aver. (HepG2 cells [3]): 85.73; Cholesterol (500 uM) Aver. (HepG2 cells [3]): 82.40
"COc1ccc(N=C(NCCc2cccs2)NC(=N)N)cc1.Cl [Example 15, N1-2-(thiophen-2-ylethyl)-N2-(4-methoxy)phenyl biguanide hydrochloride]",–,–,–,–,–,–,"Glucose absorption (100 uM) Aver. (C2C12 cells; hydrochloride): 124.3%; Gluconeogenesis inhibition (100 uM) Aver. (HepG2 cells [1]; 100 uM compound, 24 hours, HepG2, lower value = stronger gluconeogenesis inhibition, hydrochloride, 100 µM): 86.69; Triglyceride (100 uM) Aver. (HepG2 cells [2]; 100 uM compound, 24 hours, HepG2, lower value = stronger triglyceride synthesis inhibition, hydrochloride): 76.6; Triglyceride (500 uM) Aver. (HepG2 cells [2]; 500 uM compound, 24 hours, HepG2, lower value = stronger triglyceride synthesis inhibition, hydrochloride): 41.4; Cholesterol (100 uM) Aver. (HepG2 cells [3]; 100 uM compound, 24 hours, HepG2, lower value = stronger cholesterol synthesis inhibition, hydrochloride): 67.3; Cholesterol (500 uM) Aver. (HepG2 cells [3]; 500 uM compound, 24 hours, HepG2, lower value = stronger cholesterol synthesis inhibition, hydrochloride): 39.7"
"Cl.N=C(N)NC(=NC1CCCC1)NCCc1cccs1 [Example 21, N1-2-(thiophen-2-ylethyl)-N2-cyclopentyl biguanide hydrochloride]",174.8,97.66,80.5,85.6,68.2,45.8,–
N1-2-(thiophen-2-ylethyl)-N2-cyclohexyl biguanide hydrochloride [Example 6],56.15,–,–,–,–,–,Gluconeogenesis inhibition (100 uM) Aver. (HepG2 cells [1]): 33.59; Triglyceride (100 uM) Aver. (HepG2 cells [2]): 51.00; Triglyceride (500 uM) Aver. (HepG2 cells [2]): −1.71; Cholesterol (100 uM) Aver. (HepG2 cells [3]): 30.58; Cholesterol (500 uM) Aver. (HepG2 cells [3]): 0.51
"CCN=C(NCCc1cccs1)NC(=N)N.Cl [Example 1, N1-(thiophen-2-ylethyl)-N2-ethyl biguanide hydrochloride]",322.7,–,56.70,54.57,45.18,30.51,"glucose absorption effect relative to control group (C2C12 cells; [9]): about 20 times; effect in inhibiting gluconeogenesis relative to control group (HepG2 cells [1]; [9]): at least 20 times; activity at 100 µM (HepG2 cells [1]; Homo sapiens, HepG2, 24 h, 100 uM compound, 24 hours, HepG2, lower value = stronger gluconeogenesis inhibition, read-out: Gluconeogenesis inhibition (100 uM) Aver.): 48.9%"
"CC(C)(C)c1ccc(N=C(NCCc2cccs2)NC(=N)N)cc1.Cl [Example 28, N1-2-(thiophen-2-ylethyl)-N2-(4-t-butylphenyl) biguanide hydrochloride]",4.29,2.57,15.55,15.21,27.49,26.60,–
"CC(C)(C)CC(C)(C)N=C(NCCc1cccs1)NC(=N)N.Cl [Example 2, N1-2-(thiophen-2-ylethyl)-N2-t-octyl biguanide hydrochloride]",10.46,68.28,29.21,−1.92,63.63,55.38,–
"COc1ccc(N=C(NCCc2cccs2)NC(=N)N)cc1.Cl [Example 30, N1-2-(thiophen-2-ylethyl)-N2-(4-methoxyphenyl) biguanide hydrochloride (isomer)]",148.42,–,91.91,48.42,73.64,26.15,"Gluconeogenesis inhibition (100 uM) Aver. (HepG2 cells [1]; 100 uM compound, 24 hours, HepG2, lower value = stronger gluconeogenesis inhibition, 100 µM): 105.18"
"CCCN=C(NCCc1cccs1)NC(=N)N.Cl [Example 13, N1-2-(thiophen-2-ylethyl)-N2-propyl biguanide hydrochloride]",110.2,73.51,59.3,48.9,77.1,61.7,–
"CC(C)CN=C(NCCc1cccs1)NC(=N)N.Cl [Example 42, -2-(thiophen-2-ylethyl)-N2-isobutyl biguanide hydrochloride]",171.92,99.91,97.66,88.50,89.11,73.15,–
"Cc1ccc(CN=C(NCCc2cccs2)NC(=N)N)cc1.Cl [Example 40, N1-2-(thiophen-2-ylethyl)-N2-(4-methylbenzyl) biguanide hydrochloride]",75.38,–,–,–,–,–,Gluconeogenesis inhibition (100 uM) Aver. (HepG2 cells [1]): 81.23; Triglyceride (100 uM) Aver. (HepG2 cells [2]): 84.73; Triglyceride (500 uM) Aver. (HepG2 cells [2]): 60.37; Cholesterol (100 uM) Aver. (HepG2 cells [3]): 72.58; Cholesterol (500 uM) Aver. (HepG2 cells [3]): 57.11
